Assay results from patent US20220334101A1, “MODULATING EXTRACELLULAR MATRIX MOVEMENT” (Helmholtz Zentrum Muenchen - Deutsches Forschungszentrum …, priority 2019, published 2022).
Where a name gives a salt, the structure may show the parent alone.

Test system: peritoneum
Assay: ECM (matrix) movement into peritoneal wounds after laparotomy injury, NHS-FITC matrix labelling
Format: in vivo, mouse
Conditions: inhibitors 10 μM i.p. 2 hours before surgery, organs harvested after 24 h, FITC in wound lysates

SMILES | ECM (matrix) movement, peritoneum
CC(C)C[C@H](NC(=O)[C@@H](O)[C@H](N)Cc1ccccc1)C(=O)O [BESTATIN] | decreased
N#CC(=C(O)c1ccc(Cl)cc1Cl)c1nc2cc(Cl)ccc2c(=O)[nH]1 [Ciliobrevin D] | decreased

Same assay, conditions: livers and peritoneas compared

SMILES | organ specificity of the effect on matrix currents
N#CC(=C(O)c1ccc(Cl)cc1Cl)c1nc2cc(Cl)ccc2c(=O)[nH]1 [Ciliobrevin D] | effected matrix currents of only one organ

Test system: skin-fascia explants
Assay: Scar-in-a-dish (SCAD) ex vivo skin-fascia explant assay, screening of Prestwick chemical library
Format: cell-based, mouse
Conditions: molecules of table 1 named as inhibitors of ECM movement
Excerpt: Post born Day 0 (P0) neonates of C57BL/6J wild type mouse were first sacrificed by decapitation. Then dorsal back skin was isolated to make 2 mm full thickness biopsies (0 2 mm, Stiefel) that included the epidermis, dermis and deep subcutaneous fascia layers. The whole skin tissue explant system is termed as scar-in-a-dish (SCAD) assay (Patent Application no. PLA17A13). The SCAD tissue was maintained in DMEM/F12 cell culture medium (Life Technologies) supplemented with 10% FBS (Life Technologies), 1% non-essential amino acid (Thermo Fisher), 1% Glutamax (Thermo Fisher), 1% penicillin and streptomycin (Thermo Fisher) in a 37° C. incubator supplied with […] and 5% CO2. Medium was changed every other day until day 5 when SCADs were collected and fixed for histology analysis. To be noticed, the excised skin was submerged […] in culture media, which confined the scar-prone fibroblasts to the explant and discouraged their adherence to the tissue culture plate.
The PCL provides an additional advantage as all chemicals are of stable physicochemical properties, show a high range of chemical diversity, and are with known bioavailability and safety data in humans. All these information helps to reduce the probability of screening low-quality hits and save the costs of preliminary screening process.
In order to accommodate to medium scale screening approach, the Inventors adapted the SCAD explant system into 96-well plate (Falcon) formats, with each well contained one biopsy. […] Plate and liquid handling were performed using a high-throughput screening platform system composed of a Sciclone G3 Liquid Handler from PerkinElmer (Waltham, Mass., USA). On Day 0 tissues were treated either with the respective compound (1 mM stock solution) dissolved in 100% dimethyl sulfoxide (DMSO, Carl Roth) or DMSO alone. 0.5 μl of compounds/DMSO were transferred with a 96-array head to 200 μl DMEM/F12 medium per well to keep the final DMSO concentrations at […]. Tissues were then incubated (37° C.; 5% CO2) for 72 h prior to a second round of compound treatment, which was performed by exchanging cell culture medium per well and transferring […] of compounds/DMSO into the fresh medium. After an incubation time of another 48 h (37° C.; 5% CO2) the tissues were harvested and fixed for histological processing and imaging.
Briefly, the Inventors excised 2-mm full thickness skin biopsies that included epidermis, dermis, and deep subcutaneous fascia layers from mouse backs (see Methods). Skin-fascia explants were submerged fascia-side up in culture media, to confine scar-prone fibroblasts to the explant and discourage their adherence to the tissue culture plate.
The Prestwick library has selected a diverse array of chemicals with strong physicochemical properties, with known bioavailability and clinical safety data. The library is an ideal place to start screening as it covers all major therapeutic chemical classes such as central nervous system, cardiovascular system, metabolism, and infectious diseases.

SMILES | phenotype as inhibitor of ECM movement
C[C@H]1NC(=O)NC1=O [Methylhydantoin-5-(D)] | anti-fibrotic phenotype
CCCCN(CCCC)CCC(O)c1cc2c(Cl)cc(Cl)cc2c2cc(C(F)(F)F)ccc12 (centres unmarked) [Halofantrine hydrochloride] | anti-fibrotic phenotype
CC(C)(C)C(=O)OCOC(=O)[C@@H]1N2C(=O)[C@@H](NC(=O)[C@H](N)c3ccccc3)[C@H]2SC1(C)C [Pivampicillin] | anti-fibrotic phenotype
CN1CCCC(n2nc(Cc3ccc(Cl)cc3)c3ccccc3c2=O)CC1 (centres unmarked) [Azelastine HCl] | anti-fibrotic phenotype
CC(O)(P(=O)(O)O)P(=O)(O)O [Etidronic acid, disodium salt] | anti-fibrotic phenotype
C=C1/C(=C\C=C2/CCC[C@]3(C)[C@@H]([C@H](C)CCCC(C)C)CC[C@@H]23)C[C@@H](O)C[C@@H]1O [Alfacalcidol] | anti-fibrotic phenotype
NC(=O)c1cnccn1 [Pyrazinamide] | anti-fibrotic phenotype
CN1CCOC(c2ccccc2)c2ccccc2C1 (centres unmarked) [Nefopam hydrochloride] | anti-fibrotic phenotype
CCCOc1cc(N)ccc1C(=O)OCCN(CC)CC [Propoxycaine hydrochloride] | anti-fibrotic phenotype
C#C[C@]1(O)CC[C@H]2[C@@H]3CCC4=C(CCC(=O)C4)[C@H]3CC[C@@]21C [Norethynodrel] | anti-fibrotic phenotype
NC(N)=Nc1nc(CSCCC(N)=NS(N)(=O)=O)cs1 [Famotidine] | anti-fibrotic phenotype
[H]/N=C(/NCCCCC)N/N=C/c1c[nH]c2ccc(OC)cc12 [Tegaserod maleate] | anti-fibrotic phenotype
CC(=O)N(CC(O)CN(C(C)=O)c1c(I)c(C(=O)NCC(O)CO)c(I)c(C(=O)NCC(O)CO)c1I)c1c(I)c(C(=O)NCC(O)CO)c(I)c(C(=O)NCC(O)CO)c1I (centres unmarked) [Iodixanol, lodixanol] | anti-fibrotic phenotype
CCN(CC)CCc1nc(-c2ccccc2)no1.O=C(O)CC(O)(CC(=O)O)C(=O)O [Oxalamine citrate salt] | anti-fibrotic phenotype
CCC(C)(C)c1ccc(CC(C)CN2C[C@@H](C)O[C@@H](C)C2)cc1 (some centres unmarked) [Amorolfine hydrochloride] | anti-fibrotic phenotype
CCC(=O)O[C@]1(C(=O)SCF)[C@H](C)C[C@H]2[C@@H]3C[C@H](F)C4=CC(=O)C=C[C@]4(C)[C@@]3(F)[C@@H](O)C[C@@]21C [Fluticasone propionate] | anti-fibrotic phenotype
CCN1CC(CCN2CCOCC2)C(c2ccccc2)(c2ccccc2)C1=O (centres unmarked) [Doxapram hydrochloride] | anti-fibrotic phenotype
CC(C)/N=c1\cc2n(-c3ccc(Cl)cc3)c3ccccc3nc-2cc1Nc1ccc(Cl)cc1 [Clofazimine] | anti-fibrotic phenotype
COc1ccc(NS(=O)(=O)c2ccc(N)cc2)nn1 [Sulfamethoxypyridazine] | anti-fibrotic phenotype

SMILES | phenotype as inhibitor of ECM movement
COc1ccc2c(c1)N(C[C@H](C)CN(C)C)c1ccccc1S2.O=C(O)/C=C\C(=O)O [Methotrimeprazine maleat salt] | anti-fibrotic phenotype
O=C1CC[C@@]2(O)[C@H]3Cc4ccc(O)c5c4[C@@]2(CCN3CC2CC2)[C@H]1O5 [Naltrexone hydrochloride dehydrate, Naltrexone hydrochloride dihydrate] | anti-fibrotic phenotype
CC[C@H](C)C(=O)O[C@H]1CCC=C2C=C[C@H](C)[C@H](CC[C@@H]3C[C@@H](O)CC(=O)O3)[C@H]21 [Mevastatin] | anti-fibrotic phenotype
CC[C@]12CCCN3CCc4c(n(c5ccccc45)C(=O)C1)[C@@H]32 [Eburnamonine (−)] | anti-fibrotic phenotype
COc1cccc2c1C(=O)c1c(O)c3c(c(O)c1C2=O)C[C@@](O)(C(=O)CO)C[C@@H]3O[C@H]1C[C@H](N)[C@H](O)[C@H](C)O1 [Doxorubicin hydrochloride] | anti-fibrotic phenotype
CC1(C)O[C@@H]2C[C@H]3[C@@H]4C[C@H](F)C5=CC(=O)C=C[C@]5(C)[C@@]4(F)[C@@H](O)C[C@]3(C)[C@]2(C(=O)CO)O1 [Fluocinolone acetonide] | anti-fibrotic phenotype
C[C@@H]1C[C@H]2[C@@H]3C[C@H](F)C4=CC(=O)C=C[C@]4(C)[C@@]3(F)[C@@H](O)C[C@]2(C)[C@@]1(O)C(=O)COC(=O)C(C)(C)C [Flumethasone pivalate] | anti-fibrotic phenotype
CCN1CCN(C(=O)N[C@@H](C(=O)N[C@@H]2C(=O)N3[C@@H]2SC(C)(C)[C@@H]3C(=O)O)c2ccccc2)C(=O)C1=O [Piperacillin sodium salt] | anti-fibrotic phenotype
Nc1ccc(S(=O)(=O)Nc2ccnn2-c2ccccc2)cc1 [Sulfaphenazole] | anti-fibrotic phenotype
O=C(c1ccccc1)c1ccc2n1CCC2C(=O)O (centres unmarked) [Ketorolac tromethamine] | anti-fibrotic phenotype
CC(=O)[C@H]1CC[C@H]2[C@@H]3C[C@H](C)C4=CC(=O)CC[C@]4(C)[C@H]3[C@@H](O)C[C@]12C [Medrysone] | anti-fibrotic phenotype
Clc1cc(Cl)c(OCC#CI)cc1Cl [Haloprogin] | anti-fibrotic phenotype
CC(C)N(CCC(C(N)=O)(c1ccccc1)c1ccccn1)C(C)C (centres unmarked) [Disopyramide] | anti-fibrotic phenotype
CC1(C)S[C@@H]2[C@H](NC(=O)Cc3ccccc3)C(=O)N2[C@H]1C(=O)O.CC1(C)S[C@@H]2[C@H](NC(=O)Cc3ccccc3)C(=O)N2[C@H]1C(=O)O.c1ccc(CNCCNCc2ccccc2)cc1 [Benzathine benzylpenicillin] | anti-fibrotic phenotype
O=c1[nH]c2ccccc2n1CCCN1CCC(n2c(=O)[nH]c3cc(Cl)ccc32)CC1 [Domperidone] | anti-fibrotic phenotype
Nc1ccc(S(=O)(=O)Nc2cnc3ccccc3n2)cc1 [Sulfaquinoxaline sodium salt] | anti-fibrotic phenotype
CCOc1cc(CC(=O)N[C@@H](CC(C)C)c2ccccc2N2CCCCC2)ccc1C(=O)O [Repaglinide] | anti-fibrotic phenotype
C[N+](C)(CCOc1ccccc1)Cc1ccccc1.O=C([O-])c1cc2ccccc2cc1O [Bephenium hydroxynaphthoate] | anti-fibrotic phenotype
C[C@H](N)[C@H](O)c1ccc(O)c(O)c1 [Levonordefrin] | anti-fibrotic phenotype

Test system: liver
Assay: ECM (matrix) movement into liver wounds after electroporation injury, NHS-FITC matrix labelling
Format: in vivo, mouse
Conditions: filter paper with 100 nM solution on liver surface for 5 minutes, absence of wounds

SMILES | recruitment / deposition of fluid matrix after local application
CCCCC/C=C\C[C@@H](O)/C=C/C=C/C=C\[C@@H](O)CCCC(=O)O [LTB4] | forms new deposits of matrix
CCCCC[C@H](O)/C=C/C=C\C=C\C=C\[C@@H](O)[C@@H](O)CCCC(=O)O [Lipoxin A4] | led to recruitment of fluid matrix

Same assay, conditions: filter paper with 100 nM solution on liver surface for 5 minutes, absence of wounds; listed as Lipoxin

SMILES | recruitment / deposition of fluid matrix after local application
CCCCC[C@H](O)/C=C/C=C\C=C\C=C\[C@@H](O)[C@@H](O)CCCC(=O)O [Lipoxin A4] | can be directed with local application
